Laboratory results as given in US12371436B2, “Substituted benzodiazoliums as ENaC inhibitors” (ENTERPRISE THERAPEUTICS LIMITED, priority 2016, dated 2025).

Columns and labels:
[1] = Bronchoalveolar lavage (BAL) procedure: compound levels after intratracheal administration; assay type: in vivo; details: bronchoalveolar lavage fluid (BAL), other: intratracheal, 0.1 mg/kg, rat, 0.1 mg/mL solution in 5% dextrose, 1 mL/Kg, BAL 6 hours after administration, LC/MS/MS
Description: Example 69—Bronchoalveolar Lavage (BAL) Procedure A 0.1 mg/mL solution of ENaC inhibitor in 5% dextrose was administered intratracheally to a rat weighing 225-250 g. A volume of 1 mL/Kg was used. After 6 hours, lungs were lavaged with 3×4 mL of sterile saline. A 1 mL aliquot was subsequently snap frozen. Lungs were excised, weighed and snap frozen. Compound levels in the BAL and lung tissue were subsequently determined using LC/MS/MS bioanalysis.

[2] = target: T1, ENaC (Homo sapiens, UniProt P37088+P51168+P51170); assay: Short circuit current assay to determine ENaC blocker potency in human bronchial epithelial cells; assay type: cell-based; details: 50% inhibition of total amiloride-sensitive ISC, apical addition, read-out: Averages.ENaC IC50 (nM) Avg
T1 construct: host or cells: primary human bronchial epithelial cells (HBECs) differentiated at air-liquid interface
T1 sequence (P37088 1-669): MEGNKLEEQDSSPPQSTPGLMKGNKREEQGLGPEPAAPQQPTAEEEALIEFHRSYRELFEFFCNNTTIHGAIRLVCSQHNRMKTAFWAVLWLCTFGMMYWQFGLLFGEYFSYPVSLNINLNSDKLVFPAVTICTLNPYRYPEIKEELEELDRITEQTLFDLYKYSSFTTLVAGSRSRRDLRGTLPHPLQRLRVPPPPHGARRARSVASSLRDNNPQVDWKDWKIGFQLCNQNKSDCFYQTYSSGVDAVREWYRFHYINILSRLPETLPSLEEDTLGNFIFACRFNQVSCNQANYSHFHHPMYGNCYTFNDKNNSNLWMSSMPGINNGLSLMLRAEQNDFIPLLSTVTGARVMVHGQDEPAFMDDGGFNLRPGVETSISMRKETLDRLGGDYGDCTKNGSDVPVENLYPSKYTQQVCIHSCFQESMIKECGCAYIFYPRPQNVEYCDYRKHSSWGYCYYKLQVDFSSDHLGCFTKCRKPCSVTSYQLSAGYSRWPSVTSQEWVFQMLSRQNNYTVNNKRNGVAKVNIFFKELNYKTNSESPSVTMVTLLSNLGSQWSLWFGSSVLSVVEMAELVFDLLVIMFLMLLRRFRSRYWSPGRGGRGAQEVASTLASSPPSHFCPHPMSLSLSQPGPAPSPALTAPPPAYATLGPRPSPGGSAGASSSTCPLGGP
T1 sequence (P51168 1-640): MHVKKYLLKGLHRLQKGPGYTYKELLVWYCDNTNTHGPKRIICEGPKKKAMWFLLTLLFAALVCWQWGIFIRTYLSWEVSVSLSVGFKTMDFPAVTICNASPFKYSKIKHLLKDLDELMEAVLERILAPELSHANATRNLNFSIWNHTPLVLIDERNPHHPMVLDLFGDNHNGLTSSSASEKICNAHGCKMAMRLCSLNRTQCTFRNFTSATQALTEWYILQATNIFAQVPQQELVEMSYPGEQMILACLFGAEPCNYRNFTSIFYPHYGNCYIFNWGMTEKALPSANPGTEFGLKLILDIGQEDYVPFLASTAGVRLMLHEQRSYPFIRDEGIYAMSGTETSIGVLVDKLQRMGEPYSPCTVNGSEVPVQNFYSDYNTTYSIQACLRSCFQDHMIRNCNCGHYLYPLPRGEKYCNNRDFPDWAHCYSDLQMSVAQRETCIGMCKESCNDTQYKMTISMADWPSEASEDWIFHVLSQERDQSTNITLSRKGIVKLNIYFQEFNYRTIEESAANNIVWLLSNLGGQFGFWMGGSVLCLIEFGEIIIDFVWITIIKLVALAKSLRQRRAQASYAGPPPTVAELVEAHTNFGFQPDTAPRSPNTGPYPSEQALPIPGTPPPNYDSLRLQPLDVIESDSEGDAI
T1 sequence (P51170 1-649): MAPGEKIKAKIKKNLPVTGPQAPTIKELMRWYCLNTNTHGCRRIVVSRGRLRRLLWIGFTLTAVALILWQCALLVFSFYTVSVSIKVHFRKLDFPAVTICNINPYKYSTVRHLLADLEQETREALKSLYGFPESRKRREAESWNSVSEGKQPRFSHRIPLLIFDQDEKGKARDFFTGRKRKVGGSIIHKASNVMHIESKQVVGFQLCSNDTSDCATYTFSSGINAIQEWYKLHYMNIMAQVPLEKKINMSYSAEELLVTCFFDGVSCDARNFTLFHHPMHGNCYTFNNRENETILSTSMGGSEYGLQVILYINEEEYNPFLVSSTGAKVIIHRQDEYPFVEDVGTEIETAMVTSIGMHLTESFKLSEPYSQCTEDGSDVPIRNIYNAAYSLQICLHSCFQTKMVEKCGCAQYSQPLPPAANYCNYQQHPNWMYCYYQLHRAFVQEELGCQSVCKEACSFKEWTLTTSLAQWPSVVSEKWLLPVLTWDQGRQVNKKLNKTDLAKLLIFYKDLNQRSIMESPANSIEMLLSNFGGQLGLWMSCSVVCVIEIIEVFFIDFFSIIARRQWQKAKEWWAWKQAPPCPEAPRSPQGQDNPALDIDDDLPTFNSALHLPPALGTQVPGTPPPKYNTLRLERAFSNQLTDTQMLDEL
Procedure, shortened: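 Primary human bronchial epithelial cells at air-liquid interface (days 14–21) were voltage-clamped at 0 mV in Ussing chambers (Ringer, pH 7.4, 37° C.). Compounds were added apically as cumulative concentrations, then 10 μM amiloride. IC50 was taken as 50% inhibition of amiloride-sensitive ISC.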

SMILES	concentration at 6 h [1] [ng/mL]	IC50 [2] [nM]
CCn1c(CNC(=O)c2nc3cc[nH]c3nc2N)[n+](CC)c2ccc(C(=O)N3CCC(CN(C[C@H](O)[C@@H](O)[C@H](O)[C@H](O)CO)C[C@H](O)[C@@H](O)[C@H](O)[C@H](O)CO)CC3)cc21 [Example 52, 2-[({3-amino-5H-pyrrolo[2,3-b]pyrazin-2-yl}formamido)methyl]-5-[4-({bis[(2S,3R,4R,5R)-2,3,4,5,6-pentahydroxyhexyl]amino}methyl)piperidine-1-carbonyl]-1,3-diethyl-1H-1,3-benzodiazol-3-ium]	302	69
CCn1c(CNC(=O)c2nc3cc[nH]c3nc2N)[n+](CC)c2ccc(C(=O)N3CC[C@H](N(C[C@H](O)[C@@H](O)[C@H](O)[C@H](O)CO)C[C@H](O)[C@@H](O)[C@H](O)[C@H](O)CO)C3)cc21 [Example 54, 2-[({3-amino-5H-pyrrolo[2,3-b]pyrazin-2-yl}formamido)methyl]-6-[(3S)-3-{bis[(2S,3R,4R,5R)-2,3,4,5,6-pentahydroxyhexyl]amino}pyrrolidine-1-carbonyl]-1,3-diethyl-1H-1,3-benzodiazol-3-ium]	139	49
CCn1c(CNC(=O)c2nc3cc[nH]c3nc2N)[n+](CC)c2ccc(C(=O)N[C@H]3CC[C@H](N(C[C@H](O)[C@@H](O)[C@H](O)[C@H](O)CO)C[C@H](O)[C@@H](O)[C@H](O)[C@H](O)CO)CC3)cc21 [Example 55, 2-[({3-amino-5H-pyrrolo[2,3-b]pyrazin-2-yl}formamido)methyl]-1,3-diethyl-6-{[(1r,4r)-4-{bis[(2S,3R,4R,5R)-2,3,4,5,6-pentahydroxyhexyl]amino}cyclohexyl]carbamoyl}-1H-1,3-benzodiazol-3-ium]	284	78
CCn1c(CNC(=O)c2nc3cc[nH]c3nc2N)[n+](CC)c2ccc(C(=O)N[C@H]3CC[C@@H](N(C[C@H](O)[C@@H](O)[C@H](O)[C@H](O)CO)C[C@H](O)[C@@H](O)[C@H](O)[C@H](O)CO)CC3)cc21 [Example 56, 2-[({3-amino-5H-pyrrolo[2,3-b]pyrazin-2-yl}formamido)methyl]-1,3-diethyl-6-{[(1s,4s)-4-{bis[(2S,3R,4R,5R)-2,3,4,5,6-pentahydroxyhexyl]amino}cyclohexyl]carbamoyl}-1H-1,3-benzodiazol-3-ium]	283	15
CCn1c(CNC(=O)c2nc3cc[nH]c3nc2N)[n+](CC)c2ccc(C(=O)N(C)CCCN(C[C@H](O)[C@@H](O)[C@H](O)[C@H](O)CO)C[C@H](O)[C@@H](O)[C@H](O)[C@H](O)CO)cc21 [Example 57, 2-[({3-amino-5H-pyrrolo[2,3-b]pyrazin-2-yl}formamido)methyl]-6-[(3-{bis[(2S,3R,4R,5R)-2,3,4,5,6-pentahydroxyhexyl]amino}propyl)(methyl)carbamoyl]-1,3-diethyl-1H-1,3-benzodiazol-3-ium]	283	36
CCn1c(CNC(=O)c2nc3cc[nH]c3nc2N)[n+](CC)c2ccc(C(=O)NCCN(C[C@H](O)[C@@H](O)[C@H](O)[C@H](O)CO)C[C@H](O)[C@@H](O)[C@H](O)[C@H](O)CO)cc21 [Example 58, 2-[({3-amino-5H-pyrrolo[2,3-b]pyrazin-2-yl}formamido)methyl]-6-[(2-{bis[(2S,3R,4R,5R)-2,3,4,5,6-pentahydroxyhexyl]amino}ethyl)carbamoyl]-1,3-diethyl-1H-1,3-benzodiazol-3-ium]	256	78

The next lines start with the values.

concentration at 6 h [1] [ng/mL]	IC50 [2] [nM]	SMILES
197	171	CCn1c(CNC(=O)c2nc3cc[nH]c3nc2N)[n+](CC)c2ccc(C(=O)NCCOCCOCCOCCN(C[C@H](O)[C@@H](O)[C@H](O)[C@H](O)CO)C[C@H](O)[C@@H](O)[C@H](O)[C@H](O)CO)cc21 [Example 59, 2-[({3-amino-5H-pyrrolo[2,3-b]pyrazin-2-yl}formamido)methyl]-1,3-diethyl-5-{[(14S,15R,16R,17R)-14,15,16,17,18-pentahydroxy-12-[(2S,3R,4R,5R)-2,3,4,5,6-pentahydroxyhexyl]-3,6,9-trioxa-12-azaoctadecan-1-yl]carbamoyl}-1H-1,3-benzodiazol-3-ium]
176	22	CCn1c(CNC(=O)c2nc3cc[nH]c3nc2N)[n+](CC)c2ccc(C(=O)NCCc3ccc(-c4ccc(CCN(C[C@H](O)[C@@H](O)[C@H](O)[C@H](O)CO)C[C@H](O)[C@@H](O)[C@H](O)[C@H](O)CO)cc4)cc3)cc21 [Example 60, 2-[({3-amino-5H-pyrrolo[2,3-b]pyrazin-2-yl}formamido)methyl]-6-({2-[4′-(2-{bis[(2S,3R,4R,5R)-2,3,4,5,6-pentahydroxyhexyl]amino}ethyl)-[1,1′-biphenyl]-4-yl]ethyl}carbamoyl)-1,3-diethyl-1H-1,3-benzodiazol-3-ium]
167	43	CCn1c(CNC(=O)c2nc3cc[nH]c3nc2N)[n+](CC)c2ccc(C(=O)NCC[C@H](NCCCN(C[C@H](O)[C@@H](O)[C@H](O)[C@H](O)CO)C[C@H](O)[C@@H](O)[C@H](O)[C@H](O)CO)C(N)=O)cc21 [Example 61, 2-[({3-amino-5H-pyrrolo[2,3-b]pyrazin-2-yl}formamido)methyl]-6-{[(3S)-3-[(3-{bis[(2S,3R,4R,5R)-2,3,4,5,6-pentahydroxyhexyl]amino}propyl)amino]-3-carbamoylpropyl]carbamoyl}-1,3-diethyl-1H-1,3-benzodiazol-3-ium]
140	24	CCn1c(CNC(=O)c2nc3cc[nH]c3nc2N)[n+](CC)c2ccc(C(=O)NCCCCc3ccc(CCC(NCCCN(C[C@H](O)[C@@H](O)[C@H](O)[C@H](O)CO)C[C@H](O)[C@@H](O)[C@H](O)[C@H](O)CO)C(N)=O)cc3)cc21 (stereo partly drawn) [Example 62, 2-[({3-amino-5H-pyrrolo[2,3-b]pyrazin-2-yl}formamido)methyl]-6-{[4-(4-{3-[(3-{bis[(2S,3R,4R,5R)-2,3,4,5,6-pentahydroxyhexyl]amino}propyl)amino]-3-carbamoylpropyl}phenyl)butyl]carbamoyl}-1,3-diethyl-1H-1,3-benzodiazol-3-ium]
